# Assay results taken from patent publication US10920198B2, “Delta133p53beta and delta133p53gamma isoforms are biomarkers of cancer stem cells” (Centre National de la Recherche Scientifique (CNRS), priority 2015, dated 2021).
# How the values were obtained:
# MCF-7 cells = test: Mammosphere formation in MCF-7 cells; format: cell-based, human
# Protocol: (§1) For mammosphere formation, 1000 cells/ml (500 cells/well) were plated in Ultra Low Cluster Plate, 24-well, Flat Bottom (Corning Inc) with MammoCult™ Medium enriched with MammoCult™ Proliferation Supplements, hydrocortisone and heparin (Stem Cell Technologies) and cultured for 15 days. For all mammosphere assays, at least three independent experiments for each condition were carried out and repeated 8-12 times. For self-renewal experiments, transfected cells were subjected to a first cycle of mammosphere formation. Upon 15 days of culture the created mammospheres were dissociated and cells were re-plated in identical conditions as for the first plating.
# [1] = test system: c-Myc, Sox 2, Oct 3/4 and Nanog; test: Expression of pluripotency/reprogramming factors in MCF-7 cells (RT-qPCR, western blot); format: cell-based, human
# Text: (§2) The following antibodies were used for immunoblotting: anti-c-Myc (9E10 mouse hybridoma clone), -Nanog (sc-81961, Santa Cruz Biotechnology), -Oct 3/4 (sc-8630, Santa Cruz Biotechnology), -Sox 2 (sc-17320, Santa Cruz Biotechnology), -p53 (DO-1; sc-126 Santa Cruz Biotechnology), -p53 Sapu (Vojtesek et al. 1995), -α-tubulin (clone DM1A, Sigma-Aldrich), -β-actin (clone AC-74 Sigma-Aldrich), -p21 (sc-397 Santa Cruz Biotechnology) and -Flag (clone M2; Sigma-Aldrich). Secondary HRP-conjugated antibodies were from GE Healthcare. For luminescence quantification, cells were serially diluted and incubated with 0.5 mM D-luciferin (Sigma). Luminescence was quantified with a Polarstar Omega instrument (BMG LABTECH).
# (§3) Total RNA was extracted (Qiagen) and reverse transcription (RT) was performed with 1-5 μg of total RNA using the SuperScript® III Reverse Transcriptase (Life Technologies) at 50° C. Levels of different mRNAs were quantified by real-time qPCR on a LightCycler480 apparatus (Roche). Briefly, 20 ng cDNA was amplified using 0.168 μM of each primer, 0.2 μM of probe (Table 4) and 1× LightCycler® 480 Probes Master Mix (Roche) for the p53 isoforms, or commercially available primers (Qiagen) and 1× LightCycler® 480 Sybr Green Master Mix (Roche) for the other genes. Data were normalized to the internal standard TBP. The different primers used and their corresponding sequences have been previously described (Bourdon et al., 2005). For each single-well amplification reaction, a threshold cycle (Ct) was calculated by using the LightCycler480 program (Roche) in the exponential phase of amplification. Relative changes in gene expression were determined using the 2ΔΔCt method and reported relative to a control. All quantification studies were performed with at least three independent experiments, repeated twice, for each condition. Data are presented as the arithmetic mean±SEM.
# [2] = test system: Δ133p53 (α, β and γ) isoforms; test: Expression of Δ133p53 isoforms in MCF-7 cells (RT-qPCR, western blot); format: cell-based, human; details: MCF-7, etoposide treatment; RT-qPCR and western blot
# Text: as §2
# Total RNA was extracted (Qiagen) and reverse transcription (RT) was performed with 1-5 μg of total RNA using the SuperScript® III Reverse Transcriptase (Life Technologies) at 50° C. Levels of different mRNAs were quantified by real-time qPCR on a LightCycler480 apparatus (Roche). […] For each single-well amplification reaction, a threshold cycle (Ct) was calculated by using the LightCycler480 program (Roche) in the exponential phase of amplification. Relative changes in gene expression were determined using the 2ΔΔCt method and reported relative to a control. All quantification studies were performed with at least three independent experiments, repeated twice, for each condition. […]
# p53, p21 [3] = test: Western blot of p53 and p21 in MCF-7 cells after etoposide; format: cell-based, human; details: MCF-7, increasing concentrations of etoposide, 16 hours
# Protocol: (§4) The human breast cancer cell lines MCF-7, MDA-MB 231 […] and […] were grown in MEM supplemented with 10% FCS, sodium pyruvate and glutamine. Following viral infection, cells were used after 24-48 h or subjected to selection with 2 μg/ml puromycin (InvivoGen) or 300 μg/ml hygromycin B (Invitrogen) for two days. Etoposide treatment was performed with final doses of 12.5, 25 and 50 ng/ml for 16 h or 50 ng/ml/day for 7 days. […] Secondary HRP-conjugated antibodies were from GE Healthcare. For luminescence quantification, cells were serially diluted and incubated with 0.5 mM D-luciferin (Sigma). Luminescence was quantified with a Polarstar Omega instrument (BMG LABTECH).
# [4] = test system: c-Myc, Oct 3/4, Nanog and Sox 2; test: Expression of pluripotency/reprogramming factors in MDA-MB-231 D3H2LN cells (RT-qPCR, western blot); format: cell-based, human
# Protocol: (§5) The human breast cancer cell lines MCF-7, MDA-MB 231 D3H2LN and C3LND were grown in MEM supplemented with 10% FCS, sodium pyruvate and glutamine. Following viral infection, cells were used after 24-48 h or subjected to selection with 2 μg/ml puromycin (InvivoGen) or 300 μg/ml hygromycin B (Invitrogen) for two days. Etoposide treatment was performed with final doses of 12.5, 25 and 50 ng/ml for 16 h or 50 ng/ml/day for 7 days.
# as §2, §3
# [5] = test system: Δ133p53 (α, β and γ) isoforms; test: Expression of Δ133p53 isoforms in MDA-MB-231 D3H2LN cells after etoposide; format: cell-based, human; details: not dose-dependent
# Protocol: as §5, with “D3H2LN” left out, “C3LND” left out
# p53, p21 [6] = test: Western blot of p53 and p21 in MDA-MB-231 D3H2LN cells after etoposide; format: cell-based, human; details: MDA-MB-231 D3H2LN (p53 R280K), increasing concentrations of etoposide
# Protocol: as §4
# [7] = test system: SW480 colon carcinoma cells; test: Colosphere formation in SW480 colon carcinoma cells; format: cell-based, human; details: compared to control shLuc
# Protocol: as §1
# The same protocol has been used with human colon carcinoma cell line SW480.
# MDA-MB-231 C3LND cells [8] = test: Mammosphere formation in MDA-MB-231 C3LND cells; format: cell-based, human; details: C3LND cells after transduction
# Protocol: as §1
# [9] = test system: c-Myc, Oct 3/4, Nanog and Sox 2; test: RT-qPCR of pluripotency/reprogramming factors in MDA-MB-231 C3LND cells; format: cell-based, human; details: C3LND cells after transduction
# Protocol: as §3
# MDA-MB-231 C3LND cells [10] = test: Flow cytometry of CD44/CD24 double labeling in MDA-MB-231 C3LND cells; format: cell-based, human; details: C3LND cells after transduction
# Protocol: Single cell suspensions were labeled on ice with CD24-FITC, CD44-PE and their respective isotype controls (BioLegend) at the dilutions indicated by the manufacturer in Phosphate Buffered Saline (PBS) with 10% FBS for 30 min. Cells were then washed once with PBS and re-suspended in PBS/10% FBS. All samples were analyzed on a CyAn analyzer ([…] Coulter, Inc) using Sytox Blue (Life Technologies) to monitor cell viability.
# C3LND cancer cells = test: Distant metastasis after intracardiac injection of C3LND cells in athymic mice (bioluminescence); format: in vivo; details: transduced C3LND cells, compared to control cells
# Protocol: All in vivo experiments were performed in compliance with the French regulations and ethical guidelines for experimental animal studies in an accredited establishment (Agreement No. C34-172-27). 2.10^6 control or Sh3-treated C3LND cancer cells were grafted in 6 week-old female athymic mice (Harlan, Le Malourlet, France) by intracardiac injection (n=5-7/group). Bioluminescence detection was used to monitor tumor growth and distal metastasis formation in head and legs. Regions of interest (ROI) were delineated around the tumor sites and the total flux (ph/s) in the ROI was measured.
# MDA-MB-231 D3H2LN cells = test: Mammosphere formation in MDA-MB-231 D3H2LN cells; format: cell-based, human; details: overexpression
# Protocol: as §1
# [11] = MCF-7 cells after transduction, compared to control cells
# [12] = MCF-7 cells after transduction, mRNA and/or protein
compound,measurement,setting,value
"COc1cc([C@@H]2c3cc4c(cc3[C@@H](O[C@@H]3O[C@@H]5CO[C@@H](C)O[C@H]5[C@H](O)[C@H]3O)[C@H]3COC(=O)[C@H]23)OCO4)cc(OC)c1O [etoposide, reference compound]",mammosphere formation,"MCF-7 cells; Sh2-transduced MCF-7 cells, 50 ng/ml/day for 7 days",did not have any significant effect
same,mammosphere formation,"MCF-7 cells; control MCF-7 cells (active TAp53), 50 ng/ml/day for 7 days",significantly reduced
same,c-Myc expression,"[1]; MCF-7, increasing concentrations of etoposide, western blot and RT-qPCR",reduced
same,"Oct 3/4, Nanog and Sox 2 expression","[1]; MCF-7, increasing doses of etoposide, RT-qPCR",strongly up-regulated in a dose-dependent manner
same,Δ133p53 isoforms expression,[2],strongly up-regulated in a dose-dependent manner
same,TAp53α level,"p53, p21 [3]",stabilization
same,p21 expression,"p53, p21 [3]",increased
same,c-Myc expression,"[4]; MDA-MB-231 D3H2LN, increasing concentrations of etoposide",significantly down-regulated
same,"expression of Nanog, Sox 2 and Oct 3/4","[4]; MDA-MB-231 D3H2LN, incubation with etoposide",up-regulated
same,expression of Δ133p53 isoforms,[5],up-regulated
same,TAp53 expression,"p53, p21 [6]",did not affect
same,p21 expression,"p53, p21 [6]",only weakly increased
"Sh3: shRNA, 5′-GGAGGTGCTTACACATGTT-3′ (SEQ ID NO: 14); targets the 5′ UTR of the Δ133 isoforms (α, β and γ) (target site or template, no part of the molecule; short hairpin RNA, only the targeted sequence is given, further chemistry not given here)",mammosphere formation,MCF-7 cells; [11],significantly reduced
same,c-Myc expression,[1]; [12],not affected
same,"expression of Oct 3/4, Nanog and Sox 2",[1]; [12],significantly down-regulated
same,"Oct 3/4, Nanog and Sox 2 expression","[1]; MCF-7 cells, both etoposide treated and untreated",reduced
same,colospheres formation,[7],significantly reduced
same,sphere formation,MDA-MB-231 C3LND cells [8],significant reduction
same,"Oct 3/4, Nanog and Sox 2 expression",[9],marked decrease
same,c-Myc level,[9],small increase
same,proportion of CD44+/CD24− cells,MDA-MB-231 C3LND cells [10],decreased
same,metastasis to distant sites,C3LND cancer cells,less prone to metastasize to distant sites
"Δ133p53β: human p53 isoform (SEQ ID NO: 1), overexpressed from pMSCVhyg retroviral vector",mammosphere formation,MCF-7 cells; [11],significantly promoted
same,mammosphere formation after harvesting and re-plating of primary mammospheres,"MCF-7 cells; MCF-7 cells overexpressing the isoform, self-renewal",higher
same,c-Myc expression,[1]; [12],but not of c-Myc
same,"expression of Oct 3/4, Nanog and Sox 2",[1]; [12],significant increase
same,"Oct 3/4, Nanog and Sox 2 expression",[9],increased
same,mammosphere formation,MDA-MB-231 D3H2LN cells,significant increase
same,"Oct 3/4, Nanog and Sox 2 expression","[4]; D3H2LN cells, overexpression",significant increase
same,c-Myc level,"[4]; D3H2LN cells, overexpression",not affected
